From ChEMBL document CHEMBL3886392, “Substituted imidazopyrazines” (2015)

Target: T1, Dual specificity protein kinase TTK (Homo sapiens, UniProt P33981)
T1 sequence (P33981 whole entry): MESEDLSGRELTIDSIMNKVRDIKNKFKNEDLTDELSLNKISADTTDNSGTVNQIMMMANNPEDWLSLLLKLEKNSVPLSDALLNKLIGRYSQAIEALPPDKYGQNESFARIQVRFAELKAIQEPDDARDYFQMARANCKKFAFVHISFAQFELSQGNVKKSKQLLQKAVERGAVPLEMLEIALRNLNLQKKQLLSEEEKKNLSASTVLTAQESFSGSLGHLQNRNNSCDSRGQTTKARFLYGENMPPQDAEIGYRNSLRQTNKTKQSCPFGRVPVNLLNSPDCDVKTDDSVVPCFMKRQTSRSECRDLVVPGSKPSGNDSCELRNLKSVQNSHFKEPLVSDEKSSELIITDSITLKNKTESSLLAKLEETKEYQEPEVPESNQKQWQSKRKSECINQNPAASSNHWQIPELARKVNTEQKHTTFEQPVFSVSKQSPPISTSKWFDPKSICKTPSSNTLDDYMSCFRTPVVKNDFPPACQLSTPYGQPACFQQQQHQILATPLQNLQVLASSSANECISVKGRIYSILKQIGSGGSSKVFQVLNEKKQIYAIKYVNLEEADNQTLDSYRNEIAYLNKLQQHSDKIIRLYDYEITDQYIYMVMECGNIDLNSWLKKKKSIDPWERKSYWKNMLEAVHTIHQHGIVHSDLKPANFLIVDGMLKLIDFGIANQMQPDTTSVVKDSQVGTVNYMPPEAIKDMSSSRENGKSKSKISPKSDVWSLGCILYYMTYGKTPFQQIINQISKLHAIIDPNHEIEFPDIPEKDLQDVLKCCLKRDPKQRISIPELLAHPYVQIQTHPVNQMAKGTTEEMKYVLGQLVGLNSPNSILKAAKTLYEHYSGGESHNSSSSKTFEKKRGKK

Q: Which IC50 does the source give for `C#Cc1cn2c(-c3ccc(C(=O)NC4C[C@@H]4F)c(C)c3)cnc2c(NCCC(F)(F)F)n1` (stereo in doubt) here?
A: 36 nM
